The results in this text go back to US5993846A, “Bioadhesive emulsion preparations for enhanced drug delivery” (Pharmos Corporation, priority 1998, dated 1999).

The data set concerns blood clotting. The data set is classed as in vivo, Male Sprague Dawley rats. The protocol: Clotting time of blood droplets obtained by tail […] used to evaluate the systemic effect of LMWH following intracolonic (i.c.) or intravenous (i.v.) treatment of rats. Male Sprague Dawley rats (200-300 g) were used for all of these experiments. Following preliminary studies, experiments were performed between 8:00-13:00 hours in order to reduce diurnal changes in responsiveness to heparins. Rats were anesthetized with 0.3 ml […] (2:1), weighed, and the initial blood clotting time was determined. Each rat was then treated with either Fragmin or control vehicle (i.v. or i.c.). Intravenous treatment was performed by exposing the femoral […] and injecting in the direction of blood flow. Intracolonic treatment was performed by opening the peritoneal cavity at the midline, locating the secum, and injecting into the large intestine, approximately 2 cm from the secum. The time of treatment was considered as T. At the indicated intervals, blood clotting time was determined. The pharmacological activity, denoted PA %, was used to evaluate the relative effect of various routes of administration and dose levels on blood clotting time. PA % was calculated for the individual rats and the values presented are the mean of each group. […] Blood clotting was measured by […] […] The clotting time was measured with a stop watch that was started when the drops were collected.

Low molecular weight heparin [LMWH]: the “dose-response of blood clotting time and maximal effect, ME %” value (i.v., groups A-C, FIG. 4) is listed as “approximately linear dose-response”. Moreover, under “rat, in vivo”, the “TMAX of blood clotting time” value amounted to 90 min.
